System: histamine induced nasal congestion
Conditions: 5% histamine aerosol, dogs

NCCc1c[nH]cn1 [Histamine]
induction of nasal congestion: induced congestion in all animals to varying degrees
